From patent US20230023092A1, “TREATMENT OF DEPRESSION AND OTHER VARIOUS DISORDERS WITH PSILOCYBIN” (COMPASS […], priority 2019, published 2023)

Tested on: healthy subjects
Assay: Phase 1 study: adverse events (TEAEs, MedDRA coded)
Type: in vivo, human
Details: 25 mg oral
Description: A Phase 1 randomized, double-blind, placebo-controlled study to evaluate the effect of psilocybin on cognitive and emotional processing as compared to placebo in healthy volunteers was conducted. The study investigated the short-term (Day 7) and long-term (Day 28) effects of moderate (10 mg) and high doses (25 mg) of psilocybin on key domains of cognition, such as episodic memory, attention, working and spatial memory, social cognition and elements of executive function, including cognitive flexibility.
Each subject was assigned 1 treatment bottle containing 5 capsules packaged in a double-blind fashion, depending on the randomized treatment arm, the bottle contained one of the following: • a. Psilocybin 10 mg: 2×5-mg oral psilocybin capsules plus 3×placebo capsules • b. Psilocybin 25 mg: 5×5-mg oral psilocybin capsules • c. Placebo: 5×placebo capsules
Each 5-mg oral psilocybin capsules comprised 5 mg crystalline psilocybin in the form or Polymorph A, 12.5 mg of SMCC 50, 79.5 mg of SMCC 90, 1 mg sodium starch glycolate, 1 mg colloidal silicon dioxide, and 1 mg sodium stearyl fumarate
Adverse events: Throughout the course of the study, all AEs were monitored and recorded. Each AE was classified according to the following criteria: • i. […] Moderate: The AE produces some impairment of functioning, but is not hazardous to the subject's health. • iii. Severe: The AE produces significant impairment of functioning or incapacitation and is a definite hazard to the subject's health.
Visit 3 (V3): Drug Administration (Day 0): The subject was asked to eat a light breakfast at least two hours prior to coming to the clinic for study drug administration. On Day 0 (V3), the subject underwent the SSTS, had vital signs obtained, medications reviewed, AEs recorded and eligibility reviewed prior to being randomized to study drug. The study drug was administered to up to six subjects simultaneously in individual beds separated by a curtain. The subject was invited to put on eyeshades and headphones, lie down and listen to calming music for the rest of the session (six hours). The subject was supported 1:1 with a chaperone and supervised by the study psychiatrist and lead therapist.
During administration of psilocybin, each subject received one-on-one support from a trained assisting therapist and each dosing session was supervised by a study psychiatrist and a lead therapist. The study drug was administered simultaneously to up to six participants as a single 5-capsule oral dose (10 mg psilocybin: 2×5-mg psilocybin capsules plus 3×placebo capsules; 25 mg psilocybin: 5×5-mg psilocybin capsules; placebo: 5×placebo capsules). Twenty-five dosing sessions were completed, with up to six participants dosed simultaneously per session. Each session lasted approximately 6 to 8 hours with subjects encouraged to relax and engage in introspection for the duration. After the acute effects of the study drug had subsided, subjects were discharged.

CN(C)CCc1c[nH]c2cccc(OP(=O)(O)O)c12 [Psilocybin, psilocybin]
8: Euphoric mood, Events | Fatigue, Events | General disorders and administration site conditions, worst severity Mild, Events
6: Emotional disorder, Events
3: Euphoric mood, worst severity Mild, Events | Fatigue, worst severity Mild, Events | Hallucination, auditory, worst severity Moderate, Events | Hallucination, visual, worst severity Mild, Events
29: Any TEAE, worst severity Severe, Events | Any severe TEAE, Events
5: Emotional disorder, worst severity Moderate, Events | Fatigue, worst severity Moderate, Events | Gastrointestinal disorders, Events | Hallucination, visual, worst severity Severe, Events | Headache, worst severity Moderate, Events
13 (43.3): Hallucination, visual, worst severity Moderate, N (%)
0: Affect lability, worst severity Severe, Events | Affect lability, worst severity Severe, N (%) | Any TEAE leading to death, Events | Any TEAE leading to death, N (%) | Any TEAE leading to study discontinuation, Events | Any TEAE leading to study discontinuation, N (%) | Any serious TEAE related to study treatment, Events | Any serious TEAE related to study treatment, N (%) | Any serious TEAE, Events | Any serious TEAE, N (%) | Change in sustained attention, Events | Change in sustained attention, N (%) | Emotional disorder, worst severity Severe, Events | Emotional disorder, worst severity Severe, N (%) | Euphoric mood, worst severity Severe, Events | Euphoric mood, worst severity Severe, N (%) | Fatigue, worst severity Severe, Events | Fatigue, worst severity Severe, N (%) | Feeling abnormal, Events | Feeling abnormal, N (%) | Feeling abnormal, worst severity Mild, Events | Feeling abnormal, worst severity Mild, N (%) | Feeling abnormal, worst severity Moderate, Events | Feeling abnormal, worst severity Moderate, N (%) | Feeling abnormal, worst severity Severe, Events | Feeling abnormal, worst severity Severe, N (%) | Gastrointestinal disorders, worst severity Severe, Events | Gastrointestinal disorders, worst severity Severe, N (%) | Hallucination, auditory, worst severity Severe, Events | Hallucination, auditory, worst severity Severe, N (%) | Hallucination, gustatory, Events | Hallucination, gustatory, N (%) | Hallucination, worst severity Mild, Events | Hallucination, worst severity Mild, N (%) | Hallucination, worst severity Severe, Events | Hallucination, worst severity Severe, N (%) | Headache, worst severity Severe, Events | Headache, worst severity Severe, N (%) | Hypoaesthesia, worst severity Moderate, Events | Hypoaesthesia, worst severity Moderate, N (%) | Hypoaesthesia, worst severity Severe, Events | Hypoaesthesia, worst severity Severe, N (%)
4 (13.3): Emotional disorder, worst severity Moderate, N (%) | Euphoric mood, worst severity Moderate, N (%) | Gastrointestinal disorders, worst severity Mild, N (%) | Hallucination, auditory, N (%) | Hallucination, tactile, N (%)
22: Hallucination, visual, Events
7: General disorders and administration site conditions, worst severity Moderate, Events
52: Any TEAE, worst severity Moderate, Events
4: Euphoric mood, worst severity Moderate, Events | Gastrointestinal disorders, worst severity Mild, Events | Hallucination, auditory, Events | Hallucination, tactile, Events | Hypoaesthesia, Events | Hypoaesthesia, worst severity Mild, Events
16 (53.3): Any TEAE, worst severity Moderate, N (%)
29 (96.7): Any TEAE related to study treatment, N (%) | Any TEAE, N (%)
13: Hallucination, visual, worst severity Moderate, Events
2: Affect lability, worst severity Mild, Events | Depressed mood, Events | Dissociative identity disorder, Events | Hallucination, Events | Hallucination, worst severity Moderate, Events
18: General disorders and administration site conditions, Events
208: Any TEAE related to study treatment, Events
217: Any TEAE, Events
2 (6.7): Affect lability, worst severity Mild, N (%) | Depressed mood, N (%) | Dissociative identity disorder, N (%) | Hallucination, N (%) | Hallucination, worst severity Moderate, N (%)
1: Affect lability, worst severity Moderate, Events | Emotional disorder, worst severity Mild, Events | Feeling of relaxation, Events | Gastrointestinal disorders, worst severity Moderate, Events | General disorders and administration site conditions, worst severity Severe, Events | Hallucination, auditory, worst severity Mild, Events | Hallucination, olfactory, Events
14: Any TEAE, worst severity Mild, Events
7 (23.3): Euphoric mood, N (%)
6 (20.0): General disorders and administration site conditions, worst severity Moderate, N (%)
3 (10.0): Affect lability, N (%) | Any TEAE, worst severity Mild, N (%) | Euphoric mood, worst severity Mild, N (%) | Fatigue, worst severity Mild, N (%) | Hallucination, auditory, worst severity Moderate, N (%) | Hallucination, visual, worst severity Mild, N (%) | Hypoaesthesia, N (%) | Hypoaesthesia, worst severity Mild, N (%)
27 (90.0): Any Selected TEAE, N (%)
5 (16.7): Emotional disorder, N (%) | Fatigue, worst severity Moderate, N (%) | Gastrointestinal disorders, N (%) | Hallucination, visual, worst severity Severe, N (%) | Headache, worst severity Moderate, N (%)
21 (70.0): Hallucination, visual, N (%)
16: Headache, Events
10: Headache, worst severity Mild, Events
1 (3.3): Affect lability, worst severity Moderate, N (%) | Emotional disorder, worst severity Mild, N (%) | Feeling of relaxation, N (%) | Gastrointestinal disorders, worst severity Moderate, N (%) | General disorders and administration site conditions, worst severity Severe, N (%) | Hallucination, auditory, worst severity Mild, N (%) | Hallucination, olfactory, N (%)
106: Any Selected TEAE, Events
8 (26.7): Fatigue, N (%) | General disorders and administration site conditions, worst severity Mild, N (%)
10 (33.3): Any TEAE, worst severity Severe, N (%) | Any severe TEAE, N (%) | Headache, worst severity Mild, N (%)
15 (50.0): General disorders and administration site conditions, N (%) | Headache, N (%)
